{
  "source": "patent EP4610348A1",
  "about": "“HEPATOLENTICULAR DEGENERATION CELL, PREPARATION METHOD THEREFOR, AND EVALUATION METHOD THEREFOR” (GUANGXIU-GAOXIN LIFE SCIENCES CO., LTD. HUNAN, priority 2022, dated 2024)",
  "assay_type_in_all_cases": "cell-based, human",
  "key": {"[1]": {"test_system": "hepatolenticular degeneration hepatocytes", "experiment": "Effect of copper ion accumulation on cell viability (CCK-8)", "settings": "48 hours", "description": "(§1) 3.4 Effect of copper ion accumulation on cell viability: The induced cells were digested and evenly inoculated in a 96-well plate, with about 3×10^4 cells per well, and edge wells were filled with sterile PBS. After the cells were adhered to the wall, a copper sulfate or copper chloride solution in different concentrations (0 mM, 0.5 mM, 1 mM, and 1.5 mM) were added, and 6 replicate wells were set in each group. The wells without cells were set as blank wells. After incubation at 37°C for 48 hours (fresh culture medium was replaced every 22 hours to 26 hours), the original culture medium was discarded, and the cells were washed three times with DPBS. Fresh culture medium (100 µL per well) was added, and a 10 µL CCK-8 reaction solution was added to each well, followed by incubating at 37 °C in the dark for 4 hours. After the incubation, the absorbance at 450 nm was detected using a microplate reader."}, "normal hepatocytes": {"test_system": "normal hepatocytes", "experiment": "Effect of copper ion accumulation on cell viability (CCK-8)", "settings": "48 hours", "description": "as §1"}, "[2]": {"test_system": "ATP7B gene in hepatolenticular degeneration hepatocytes", "experiment": "Detection of ATP7B gene expression (qPCR)", "settings": "after incubation with 100 µM to 300 µM copper sulfate or copper chloride", "description": "(§2) 3.1 Detection of ATP7B gene expression: Cells on the last day of induction were collected, and ATP7B gene expression levels in the hepatocytes before and after incubation with 100 µM to 300 µM of copper sulfate or copper chloride were detected by qPCR method, with GAPDH gene as the internal reference. Primers were used for validation. The qPCR method was performed as follows: 95°C for 5 minutes; 45 cycles (94°C for 40 seconds, 54°C to 58°C for 10 seconds, 72°C for 10 seconds); and 72°C extension for 5 minutes."}, "[3]": {"test_system": "ATP7B gene in normal hepatocytes", "experiment": "Detection of ATP7B gene expression (qPCR)", "settings": "after incubation with 100 µM to 300 µM copper sulfate or copper chloride", "description": "as §2"}, "[4]": {"test_system": "ATP7B protein in hepatolenticular degeneration hepatocyte", "experiment": "Detection of ATP7B protein expression (Western blotting)", "settings": "after incubation with 100 µM to 300 µM copper sulfate or copper chloride", "description": "(§3) 3.2 Detection of ATP7B protein expression: Cells on the last day of induction were collected, and ATP7B protein expression levels in the hepatocytes before and after incubation with 100 µM to 300 µM of copper sulfate or copper chloride were detected by Western blotting method, with GAPDH protein as the internal reference. The induced cells were digested and collected in a 1.5 mL EP tube. An appropriate amount of protein lysis buffer was added depending on the cell solution volume (adding 200 µL RIPA lysis buffer for 1×10^6 cells). The cell solution was pipetted up and down to mix, and the cells were lysed in an ice bath with an ultrasonic cell disruptor for 15 minutes, then centrifuged at 13000 ×g and 4°C for 10 minutes. The supernatant was transferred to a new EP tube, and the protein concentration was detected using a BCA protein quantification kit. Polyacrylamide gel for SDS-PAGE was prepared, including preparing an 8% separating gel and a stacking gel. After the stacking gel was solidified, the comb was carefully pulled out. After a 40 µg sample and a 5 µL protein marker were loaded, the electrophoresis started at a 110 V constant voltage. After the Loading Buffer ran out of the separating gel, the electrophoresis stopped. […]"}, "[5]": {"test_system": "ATP7B protein in normal hepatocyte", "experiment": "Detection of ATP7B protein expression (Western blotting)", "settings": "after incubation with 100 µM to 300 µM copper sulfate or copper chloride", "description": "as §3"}},
  "data": [
    {"smiles": "[Cu+2]", "note": "[copper ions]", "values": [
      {"measurement": "cell viability", "setting": "[1]; 0.5 mM copper ions", "result": 93.25, "unit": "%"},
      {"measurement": "cell viability", "setting": "[1]; 1 mM copper ions", "result": 67.49, "unit": "%"},
      {"measurement": "cell viability", "setting": "[1]; 1.5 mM copper ions", "result": 34.8, "unit": "%"},
      {"measurement": "cell viability", "setting": "normal hepatocytes; 0.5 mM copper ions", "result": 95.33, "unit": "%"},
      {"measurement": "cell viability", "setting": "normal hepatocytes; 1 mM copper ions", "result": 83.78, "unit": "%"},
      {"measurement": "cell viability", "setting": "normal hepatocytes; 1.5 mM copper ions", "result": 73.53, "unit": "%"},
      {"measurement": "expression level of the ATP7B gene", "setting": "[2]", "result": "not upregulated significantly"},
      {"measurement": "expression level of the ATP7B gene", "setting": "[3]", "result": "significantly upregulated"},
      {"measurement": "expression level of the ATP7B protein", "setting": "[4]", "result": "still expresses a low level of the ATP7B protein"},
      {"measurement": "expression level of the ATP7B protein", "setting": "[5]", "result": "significantly increased"}
    ]}
  ]
}
